# What was measured:
# [1] = Aggregation of polyurea capsules, Method 5.6; type: physicochemical; design: key: ∘: no aggregation of the capsules; +: aggregation of few capsules together only visible under microscopy; ++: aggregates of mm size; +++: important aggregation; ++++: aggregation is such that a cake is obtained; conditions: polyurea Method 5.6, phase A of Table 1; for Encapsulation, No precursor (scale of aggregation): free aldehyde as phase B; for Encapsulation, With precursor (scale of aggregation): precursor (Method 1.1) as phase B
# Description: An oil phase was prepared when Desmodur VL R20 (Bayer) was added in perfume oil at a level of 2.5%.
# An aqueous phase (Solution S1) was prepared when Mowiol 4-88 (Kururay) was added in water, at a level of 0.1%.
# An aqueous phase (Solution S2) was prepared when diethylentriamine (Merck) was added in water, at a level of 2%.
# 100 g of oil phase was mixed with 250 g of solution S1, to form an oil-in-water emulsion, in a 500 mL vessel equipped with a propeller operating at 1000 rpm.
# After 10 min of stirring, 50 g of solution S2 was added.
# The slurry was stirred for 4 h at room temperature.
# The Method 5.6 of Example 5 was applied to encapsulate different perfume oils described as phase A (non aldehyde raw materials) and phase B (aldehyde raw materials).
# The composition of Phase A is described in Table 1. Phase B is an aldehyde perfume molecule used as such or as its precursor form prepared according to Method 1.1.
# According to the aspect of the slurry a scale of aggregation has been defined as follow: […]
# (§1) ∘ no aggregation of the capsules + aggregation of few capsules together only visible under microscopy ++ aggregates of mm size +++ important aggregation ++++ aggregation is such that a cake is obtained
# [2] = Water solubility of the aldehyde
# [3] = Aggregation of polyamide capsules (Example 2 method); type: physicochemical; design: key to Encapsulation, No precursor (scale of aggregation) / Encapsulation, With precursor (scale of aggregation): ∘: no aggregation of the capsules; +: aggregation of few capsules together only visible under microscopy; ++: aggregates of mm size; +++: important aggregation; ++++: aggregation is such that a cake is obtained; conditions: for Encapsulation, No precursor (scale of aggregation): free aldehyde as phase B at 5% in phase A of Table 1; for Encapsulation, With precursor (scale of aggregation): precursor of the aldehyde (Method 1.1) as phase B at 5% in phase A of Table 1
# Description: An oil phase was prepared by dissolving isophtahaloyl dichloride (Fluka) in oil (oil composition specified in the examples below) at a level of 10%
# An aqueous solution (Solution S1) was prepared by dissolving a polyvinyl alcohol Mowiol 4-88 (Kuru ray) in water at a level of 1%.
# An aqueous solution (Solution S2) was prepared when triethylentetraamine (Hunstman) was diluted in water at a level of 3%.
# 100 g of the oil phase was mixed with 450 g of solution S1 to form an oil-in-water emulsion in a 1 L reactor equipped with a MIG stirrer operating at 1000 rpm. After 5 minutes of mixing, 450 g of solution S2 was slowly added. The resultant slurry of polyamide capsules was kept under stirring for 2 H.
# Two capsule populations were formed. A first encapsulating IPM (isopropyl myristate) and a second containing IPM+5% of ethyl vaniline. The capsules were made according to the method of Example 2.
# The methodology of Example 2 was applied to encapsulate different perfume oils described as phase A (non aldehyde raw materials) and phase B (aldehyde raw materials).
# The phase B was added at 5% to the phase A prior to encapsulation. Different compositions of phase B have been used corresponding each time to a single aldehyde perfume molecule or to its precursor formed according to the methodology of Method 1.1, above.
# According to the condition of the slurry a scale of aggregation has been defined as follows: […]
# as §1
# [4] = Aggregation of polyurea capsules, Method 5.5; type: physicochemical; design: key: ∘: no aggregation of the capsules; +: aggregation of few capsules together only visible under microscopy; ++: aggregates of mm size; +++: important aggregation; ++++: aggregation is such that a cake is obtained; conditions: polyurea Method 5.5, phase A of Table 1; for Encapsulation, No precursor (scale of aggregation): free aldehyde as phase B; for Encapsulation, With precursor (scale of aggregation): precursor (Method 1.1) as phase B
# Description: An oil phase was prepared when Desmodur W and Desmodur N3300 (Bayer) were added in perfume oil at a level of 2.2% and 13% respectively.
# An aqueous phase (Solution S1) was prepared when Gantrez AN119 (ISP) was added to water, at a level of 1.6%. The solution was heated at 70° C. for 10 min to disperse the polymer.
# An aqueous phase (Solution S2) was prepared when Ethylene diamine (Merck) was added to water, at a level of 7.5%.
# 30 g of the oil phase was mixed with 80 g of solution S1, to form an oil-in-water emulsion, in a 250 mL vessel equipped with a propeller operating at 1000 rpm.
# After 10 min of stirring, 20 g of solution S2 was added.
# The slurry was stirred for 30 min at room temperature, then heated to 60° C. and stirred for 3 H at 60° C. before cooling.
# The Method 5.5 of Example 5 was applied to encapsulate different perfume oils described as phase A (non aldehyde raw materials) and phase B (aldehyde raw materials).
# The composition of Phase A was described in Table 1 above. Phase B is an aldehyde perfume molecule used as such or as its precursor form prepared according to Method 1.1.
# According to the aspect of the slurry a scale of aggregation was defined as follow: […]
# as §1
# Phase B was added at a level of 20% of aldehyde in phase A.
# [5] = Aggregation of polyurea capsules, Method 5.1; type: physicochemical; conditions: for Encapsulation (aggregation): free aldehyde at 5% in IPM
# Description: An oil phase was prepared by adding Desmodur W (Isocyanate from Bayer) to a perfume oil at a level of 16.6%.
# An aqueous phase (solution S1) was prepared by adding Luviskol k90 (BASF) to water, at a level of 4.5%. The pH of the solution was adjusted to 11.5 by addition of NaOH at 10%.
# An aqueous phase (Solution S2) was prepared when Lupasol PR8515 (BASF) was added to water, at a level of 10%.
# 300 g of the oil phase was mixed with 500 g of solution S1, to form an oil-in-water emulsion, in a 1 L reactor equipped with a MIG stirrer operating at 1000 rpm.
# After 30 minutes of mixing, 200 g of solution S2 was added over a period of 1 minute.
# After 30 minutes, the slurry was heated up to 70° C. (1 H), then kept for 2 H at 70° C., then heated to 80° C. and kept for 1 H at 80° C., then heated to 85° C. and kept for 1 H at 85° C., then cooled to 70° C. and kept for 1 H at 70° C. before final cooling at 25° C.
# The Method 5.1 of Example 5 was applied to encapsulate different perfume oils described as phase A (non aldehyde raw materials) and phase B (aldehyde raw materials).
# In the following trials, phase A was IPM and phase B was aldehyde perfume molecules. Phase B was added at a level of 5% in phase A.
# Phase B contains aldehyde C11 iso or the corresponding precursor prepared according to Method 1.1.
# Phase B was added at a level of 5% in phase A.
Compound,"Encapsulation, No precursor (scale of aggregation) [1]","Encapsulation, With precursor (scale of aggregation) [1]",Water solubility ([2]; Table of Example 13) [ppm],other results
CCCCCCCCCC=O [Aldehyde C10],++++,∘,61,"Water solubility ([2]; Table 2): 61 ppm; Water solubility ([2]; Table 3): 61 ppm; Water solubility ([2]; Table of Example 11): 61 ppm; Encapsulation, No precursor (scale of aggregation) [3]: +++; Encapsulation, With precursor (scale of aggregation) [3]: +; Encapsulation, No precursor (scale of aggregation) [4]: +++; Encapsulation, With precursor (scale of aggregation) [4]: ∘; Encapsulation (aggregation) [5]: Aggregation"
CCCCCCCCCC(C)C=O (stereo not drawn) [Aldehyde C12 mna],∘,∘,–,"Encapsulation, No precursor (scale of aggregation) [3]: ++; Encapsulation, With precursor (scale of aggregation) [3]: ∘; Encapsulation, No precursor (scale of aggregation) [4]: ∘; Encapsulation, With precursor (scale of aggregation) [4]: ∘"
COc1ccc(C=O)cc1 [Aubepine para cresol],–,–,–,"Water solubility ([2]; Table 2): 6 ppm; Encapsulation, No precursor (scale of aggregation) [3]: ++; Encapsulation, With precursor (scale of aggregation) [3]: ∘"
O=C/C=C/c1ccccc1 [Cinnamic ald],+,∘,1900,–
CC(C)(O)CCCC1=CCC(C=O)CC1 (stereo not drawn) [Cyclohexal],∘,∘,–,–
CC1(C)CCCC2=C1CC(C=O)CC2 (stereo not drawn) [Cyclomyral],∘,∘,–,–
CC(C)c1cccc(C(C)CC=O)c1 (stereo not drawn) [Florhydral],–,–,–,Water solubility ([2]; Table 3): 51 ppm; Encapsulation (aggregation) [5]: Aggregation
CC(C=O)c1ccccc1 (stereo not drawn) [Hydratropic ald],+,+,650,–
CC(CC=O)CCCC(C)(C)O (stereo not drawn) [Hydroxycitronellal],+++,∘,1800,"Water solubility ([2]; Table 3): 1800 ppm; Water solubility ([2]; Table of Example 11): 1800 ppm; Encapsulation, No precursor (scale of aggregation) [4]: ++++; Encapsulation, With precursor (scale of aggregation) [4]: ∘; Encapsulation (aggregation) [5]: Aggregation"
"CC(C)=CCCC(C)C=O (stereo not drawn) [Melonal, 2,6-dimethyl-5-heptenal]",++++,∘,344,–
CC1(C)C2CC=C(CCC=O)C1C2 (stereo not drawn) [Pino acetaldehyde],++++,∘,86,–
COC1CC2CC1C1CC(C=O)CC21 (stereo not drawn) [Scentenal],++,∘,–,–
CCOc1cc(C=O)ccc1O [ethyl vaniline],–,–,–,"Aggregation, microscopic examination ([3]; IPM + 5% aldehyde): significant aggregation"
Aldehyde iso C11,–,–,–,"Water solubility ([2]; Table 2): 30 ppm; Encapsulation, No precursor (scale of aggregation) [3]: +++; Encapsulation, With precursor (scale of aggregation) [3]: +; Slurry aspect ([5]; phase B at 5% in phase A of Table 4, listed as Aldehyde C11 iso): Cake; Slurry aspect ([5]; phase B at 5% in phase A of Table 4, listed as aldehyde C11 iso): aggregate"

# Continued, in another order:
"Encapsulation, No precursor (scale of aggregation) [1]","Encapsulation, With precursor (scale of aggregation) [1]",Water solubility ([2]; Table of Example 13) [ppm],Compound,other results
+++,∘,160,CC(CC=O)CC(C)(C)C (stereo not drawn) [Ald C9 isononylic],–
++++,∘,–,CCCCCCCCCCCC=O [Aldehyde C12 laurique],"Encapsulation, No precursor (scale of aggregation) [3]: +++; Encapsulation, With precursor (scale of aggregation) [3]: ∘; Encapsulation, No precursor (scale of aggregation) [4]: ++; Encapsulation, With precursor (scale of aggregation) [4]: ∘; Encapsulation (aggregation) [5]: Aggregation"
++++,∘,–,CCCCCC=O [Capronaldehyde (hexanal)],–
++,∘,280,CC(C)c1ccc(C=O)cc1 [Cuminic ald],–
+,∘,2,CCCCCC/C(C=O)=C\c1ccccc1 [Hexyl cinnamic ald],–
∘,∘,100,CC(CC=O)CCc1ccccc1 (stereo not drawn) [Mefranal],–
∘,∘,580,C/C(C=O)=C\c1ccccc1 [Methyl cinnamic ald],–
